From US12377080B2, “Allosteric EGFR inhibitors and methods of use thereof” (Dana-Farber Cancer Institute, Inc., priority 2019, dated 2025)

Assays:
EGFR L858R/T790M = EGFR L858R/T790M (Homo sapiens (Human), UniProt P00533, L858R/T790M); experiment: HTRF-based EGFR biochemical assay (L858R/T790M); conditions: 100 μM ATP
Procedure: (§1) EGFR biochemical activity measurements were carried out using the homogeneous time-resolved fluorescence (HTRF) assay (Cisbio). Inhibitors and DMSO normalizations were first dispensed to empty black low-volume 384-well plates (Corning) with D300 digital liquid dispenser (HP). All reactions were carried out at room temperature and solutions were added to plates with a Multidrop Combi Reagent Dispenser (ThermoFisher). The reaction mixture (10 μL final volume) contained 1 μM tyrosine kinase peptide-biotin substrate and mutant EGFR in a reaction buffer (50 mM HEPES pH 7,0, 5 mM MgCl2,1 mM MnCl2, 0.01% BSA, 2 mM TCEP, 0.1 mM NaVO4). Enzyme concentrations were adjusted to accommodate varying kinase activities (L858R 0.1 nM, L858R!T790M 0,02 nM). Enzyme reaction solution (2× concentrations, 5 μL) was added to 384-well plates containing compounds and incubated for 30 mins. Enzyme reactions were initiated with the addition of […] of ATP to a final concentration of 100 μM and reacted for 20 mins. Reactions were quenched with the addition of 10 μL of phospho-tyrosine antibody-Europium(III) cryptate (1-to-180 volume ratio) and Streptavidin-XL665 (46.7 nM) in EDTA-containing detection buffer, then incubated at room temperature for 1 hour, and read with a PHERAstar plate reader (excitation =337 nm, emission =620 nm and 665 nm).

EGFR L858R = EGFR L858R (Homo sapiens (Human), UniProt P00533, L858R); experiment: HTRF-based EGFR biochemical assay (L858R); conditions: 100 μM ATP
Procedure: as §1

[1] = system: EGFR L858R/T790M mutant Ba/F3 Cells; experiment: Ba/F3 cell proliferation (Cell Titer Glo) in combination with cetuximab; type: cell-based, murine; conditions: 72 hours
Excerpt: The EGFR mutant L858R, Del E746_A750, L858R/T790M, Del E746_A750/T790M, L858R/T790MIC797S, and DellT790MIC797S Ba/F3 cells have been previously described (Zhou, W., et al, Nature 462, 2009, 1070-1074). All cell lines were maintained in RPM I 1640 (Cellgro; Mediatech Inc., Herndon, CA) supplemented with 10% FBS, 100 units/mL penicillin, 100 units/mL streptomycin. The EGFR 1941 R mutation was introduced via site directed mutagenesis using the Quick Change Site-Directed Mutagenesis kit (Stratagene; La Jolla, CA) according to the manufacturer's instructions. All constructs were confirmed by DNA sequencing. The constructs were shuttled into the retroviral vector JP1540 using the Cre-recombination system (Agilent Technologies, Santa Clara, CA). Ba/F3 cells were then infected with retrovirus per standard protocols, as described previously (Zhou, et al, Nature 2009). Stable clones were obtained by selection in puromycin (2 μg/ml),
Growth and inhibition of growth was assessed by the Cell Titer Glo assay (Promega, Madison, WI) and was performed according to the manufacturer's instructions. The Cell Titer Glo assay is a luminescence-based method used to determine the number of viable cells based on quantitation of the ATP present, which is directly proportional to the amount of metabolically active cells present. Ba/F3 cells of different EGFR genotypes were exposed to compounds as a single agent or in combination with […] for 72 hours and the number of cells used per experiment was determined empirically as has been previously established (Zhou, et al., Nature 2009). All experimental points were set up in triplicates in 384-well plates and all experiments were repeated at least three times. […] The curves were fitted using a non-linear regression model with a sigmoidal dose response.

[2] = system: NSCLC that have developed resistance to gefitinib or erlotinib; conditions: patients with NSCLC resistant to gefitinib or erlotinib; cited from earlier work

EGFR L858R/T790M, sequence (P00533 25-1210 T790M/L858R): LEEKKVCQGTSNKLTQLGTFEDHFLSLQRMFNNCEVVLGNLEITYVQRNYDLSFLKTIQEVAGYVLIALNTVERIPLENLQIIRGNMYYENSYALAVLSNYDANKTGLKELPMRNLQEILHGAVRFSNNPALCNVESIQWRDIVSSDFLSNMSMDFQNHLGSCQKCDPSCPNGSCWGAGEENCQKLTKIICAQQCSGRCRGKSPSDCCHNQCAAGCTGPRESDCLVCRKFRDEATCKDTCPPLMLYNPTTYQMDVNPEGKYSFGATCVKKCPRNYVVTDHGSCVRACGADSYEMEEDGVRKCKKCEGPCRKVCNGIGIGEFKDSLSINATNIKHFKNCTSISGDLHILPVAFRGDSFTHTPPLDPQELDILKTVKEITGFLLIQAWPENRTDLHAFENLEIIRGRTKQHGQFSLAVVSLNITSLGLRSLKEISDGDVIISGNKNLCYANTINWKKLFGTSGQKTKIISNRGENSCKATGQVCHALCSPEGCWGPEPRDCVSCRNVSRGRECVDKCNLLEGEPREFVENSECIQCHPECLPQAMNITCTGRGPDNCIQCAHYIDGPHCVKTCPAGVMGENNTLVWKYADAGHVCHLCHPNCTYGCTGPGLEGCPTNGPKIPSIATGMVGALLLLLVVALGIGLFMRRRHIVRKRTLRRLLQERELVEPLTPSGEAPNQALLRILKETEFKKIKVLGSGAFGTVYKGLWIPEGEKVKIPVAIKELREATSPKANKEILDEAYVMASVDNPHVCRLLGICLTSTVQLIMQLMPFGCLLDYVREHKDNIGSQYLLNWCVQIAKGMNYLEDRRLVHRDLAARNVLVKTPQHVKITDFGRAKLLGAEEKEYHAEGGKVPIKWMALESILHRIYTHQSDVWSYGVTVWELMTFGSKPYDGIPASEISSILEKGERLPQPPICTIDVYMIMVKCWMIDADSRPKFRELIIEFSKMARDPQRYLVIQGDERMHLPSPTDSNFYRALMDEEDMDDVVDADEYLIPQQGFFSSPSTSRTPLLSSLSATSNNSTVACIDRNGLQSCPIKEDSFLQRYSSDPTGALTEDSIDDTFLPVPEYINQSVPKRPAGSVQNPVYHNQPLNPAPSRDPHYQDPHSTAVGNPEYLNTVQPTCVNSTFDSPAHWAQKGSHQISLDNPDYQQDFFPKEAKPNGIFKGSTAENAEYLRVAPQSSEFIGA
EGFR L858R, sequence (P00533 25-1210 L858R): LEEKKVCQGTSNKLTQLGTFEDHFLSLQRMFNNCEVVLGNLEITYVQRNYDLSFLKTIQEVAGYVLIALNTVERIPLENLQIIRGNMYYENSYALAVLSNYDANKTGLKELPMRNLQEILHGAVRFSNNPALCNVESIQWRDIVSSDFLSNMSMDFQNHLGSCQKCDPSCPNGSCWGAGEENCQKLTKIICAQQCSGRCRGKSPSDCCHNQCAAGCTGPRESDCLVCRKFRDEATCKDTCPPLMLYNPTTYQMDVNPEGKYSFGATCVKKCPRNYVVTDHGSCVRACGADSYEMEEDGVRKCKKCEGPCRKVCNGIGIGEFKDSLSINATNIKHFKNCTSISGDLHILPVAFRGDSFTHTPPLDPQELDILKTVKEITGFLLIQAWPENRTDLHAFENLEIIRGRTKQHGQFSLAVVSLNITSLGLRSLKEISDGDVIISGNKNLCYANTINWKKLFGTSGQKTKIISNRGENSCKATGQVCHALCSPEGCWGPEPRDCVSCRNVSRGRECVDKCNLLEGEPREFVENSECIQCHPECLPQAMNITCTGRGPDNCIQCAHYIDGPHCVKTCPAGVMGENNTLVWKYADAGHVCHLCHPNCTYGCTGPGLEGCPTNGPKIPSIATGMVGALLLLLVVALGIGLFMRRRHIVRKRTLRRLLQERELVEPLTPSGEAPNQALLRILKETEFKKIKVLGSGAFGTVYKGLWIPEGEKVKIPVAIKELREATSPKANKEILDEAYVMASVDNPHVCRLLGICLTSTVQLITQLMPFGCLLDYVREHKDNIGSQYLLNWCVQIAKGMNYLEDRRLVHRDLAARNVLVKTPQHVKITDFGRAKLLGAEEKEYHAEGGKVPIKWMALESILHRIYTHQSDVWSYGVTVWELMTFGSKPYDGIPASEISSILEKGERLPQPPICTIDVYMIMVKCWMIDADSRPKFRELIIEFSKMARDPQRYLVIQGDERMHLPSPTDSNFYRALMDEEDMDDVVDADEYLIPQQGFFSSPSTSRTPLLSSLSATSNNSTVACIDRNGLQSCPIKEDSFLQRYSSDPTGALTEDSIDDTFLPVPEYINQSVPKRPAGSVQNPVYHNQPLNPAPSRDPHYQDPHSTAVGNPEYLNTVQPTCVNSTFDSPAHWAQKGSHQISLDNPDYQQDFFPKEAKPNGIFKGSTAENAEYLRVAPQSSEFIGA

Row | Compound | IC50 (EGFR L858R/T790M) | IC50 (EGFR L858R) | IC50 [1] | IC50 (EGFR L858R; cells printed in μM) | RR (response rate) [2]
1 | CN1CCN(c2ccc(-c3cc4c(cn3)CN(C(C(=O)Nc3nccs3)c3cccc(F)c3)C4=O)cc2)CC1 (stereo not shown) [Compound 7, 2-(3-fluorophenyl)-2-(6-(4-(4-methylpiperazin-1-yl)phenyl)-1-oxo-1,3-dihydro-2H-pyrrolo-[3,4-c]pyridin-2-yl)-N-(thiazol-2-yl)acetamide] | 10 nM | 0.301 µM | 480 nM |  | 
2 | CN(C)C/C=C/C(=O)Nc1cc2c(Nc3ccc(F)c(Cl)c3)ncnc2cc1O[C@H]1CCOC1 [afatinib] |  |  |  |  | less than 10%
3 | CN1CCN(c2ccc(-c3ccc4c(n3)C(=O)N(C(C(=O)Nc3nccs3)c3cccc(F)c3)C4)cn2)CC1 (stereo not shown) [Compound 15, 2-(3-fluorophenyl)-2-(2-(6-(4-methylpiperazin-1-yl)pyridin-3-yl)-7-oxo-5,7-dihydro-6H-pyrrolo[3,4-b]pyridin-6-yl)-N-(thiazol-2-yl)acetamide] | 6 nM | 0.083 µM | 330 nM |  | 
4 | CN1CCN(c2ccc(-c3ccc4c(n3)C(=O)N(C(C(=O)Nc3nccs3)c3cccc(F)c3)C4)cc2)CC1 (stereo not shown) [Compound 14, 2-(3-fluorophenyl)-2-(2-(4-(4-methylpiperazin-1-yl)phenyl)-7-oxo-5,7-dihydro-6H-pyrrolo-[3,4-b]pyridin-6-yl)-N-(thiazol-2-yl)acetamide] | 4 nM | 0.032 µM | 120 nM |  | 
5 | CN1CCN(c2ccc(-c3cnc4c(c3)C(=O)N(C(C(=O)Nc3nccs3)c3cccc(F)c3)C4)cc2)CC1 (stereo not shown) [Compound 10, 2-(3-fluorophenyl)-2-(3-(4-(4-methylpiperazin-1-yl)phenyl)-5-oxo-5,7-dihydro-6H-pyrrolo-[3,4-b]pyridin-6-yl)-N-(thiazol-2-yl)acetamide] | 4 nM | 0.046 µM | 100 nM |  | 
6 | CN1CCN(c2ccc(-c3cnc4c(c3)C(=O)N(C(C(=O)Nc3ccccn3)c3cccc(F)c3)C4)cn2)CC1 (stereo not shown) [Compound 12, 2-(3-fluorophenyl)-2-(3-(6-(4-methylpiperazin-1-yl)pyridin-3-yl)-5-oxo-5,7-dihydro-6H-pyrrolo[3,4-b]pyridin-6-yl)-N-(pyridin-2-yl)acetamide] | 41 nM |  | 1910 nM | > 1 µM | 
7 | CN1CCC(c2ccc(-c3cc4c(cn3)CN(C(C(=O)Nc3nccs3)c3cccc(F)c3)C4=O)cc2)CC1 (stereo not shown) [Compound 6, 2-(3-fluorophenyl)-2-(6-(4-(1-methylpiperidin-4-yl)phenyl)-1-oxo-1,3-dihydro-2H-pyrrolo-[3,4-c]pyridin-2-yl)-N-(thiazol-2-yl)acetamide] | 6 nM | 0.06 µM | 130 nM |  | 

Continued, in another order:

Row | IC50 (EGFR L858R/T790M) | IC50 (EGFR L858R) | IC50 [1] | IC50 (EGFR L858R; cells printed in μM) | Compound | RR (response rate) [2]
8 | 3 nM | 0.027 µM | 50 nM |  | CN1CCC(c2ccc(-c3cnc4c(c3)C(=O)N(C(C(=O)Nc3nccs3)c3cccc(F)c3)C4)cc2)C1 (stereo not shown) [Compound 11, 2-(3-fluorophenyl)-2-(3-(4-(1-methylpyrrolidin-3-yl)phenyl)-5-oxo-5,7-dihydro-6H-pyrrolo-[3,4-b]pyridin-6-yl)-N-(thiazol-2-yl)acetamide] | 
9 | 1 nM | 0.006 µM | 40 nM |  | CN1CCC(c2ccc(-c3ccc4c(n3)C(=O)N(C(C(=O)Nc3nccs3)c3cccc(F)c3)C4)cc2)C1 (stereo not shown) [Compound 16, 2-(3-fluorophenyl)-2-(2-(4-(1-methylpyrrolidin-3-yl)phenyl)-7-oxo-5,7-dihydro-6H-pyrrolo-[3,4-b]pyridin-6-yl)-N-(thiazol-2-yl)acetamide] | 
10 | 0.4 nM | 0.004 µM | 10 nM |  | CN1CCC(c2ccc(-c3ccc4c(n3)C(=O)N(C(C(=O)Nc3ccccn3)c3cc(F)ccc3O)C4)cc2)CC1 (stereo not shown) [Compound 21, 2-(5-fluoro-2-hydroxyphenyl)-2-(2-(4-(1-methylpiperidin-4-yl)phenyl)-7-oxo-5,7-dihydro-6H-pyrrolo[3,4-b]pyridin-6-yl)-N-(pyridin-2-yl)acetamide] | 
11 | 1 nM | 0.005 µM | 20 nM |  | CN1CCC(c2ccc(-c3ccc4c(n3)C(=O)N(C(C(=O)Nc3nccs3)c3cccc(F)c3)C4)cc2F)CC1 (stereo not shown) [Compound 20, 2-(2-(3-fluoro-4-(1-methyl-piperidin-4-yl)phenyl)-7-oxo-5,7-dihydro-6H-pyrrolo[3,4-b]pyridin-6-yl)-2-(3-fluoro-phenyl)-N-(thiazol-2-yl)-acetamide] | 
12 | 1 nM | 0.005 µM | 10 nM |  | CN1CCC(c2ccc(-c3cnc4c(c3)C(=O)N(C(C(=O)Nc3nccs3)c3cccc(F)c3)C4)cc2)CC1 (stereo not shown) [Compound 9, 2-(3-fluorophenyl)-2-(3-(4-(1-methylpiperidin-4-yl)phenyl)-5-oxo-5,7-dihydro-6H-pyrrolo-[3,4-b]pyridin-6-yl)-N-(thiazol-2-yl)acetamide] | 
